In publication PMC6153434, “Bystander Effects of Hypoxia-Activated Prodrugs: Agent-Based Modeling Using Three Dimensional Cell Cultures” (Frontiers in Pharmacology, 2018):

How the values were obtained:
[1] = ref Hicks et al., 2010; Wang et al., 2014; Gu et al., 2017; cited from earlier work
[2] = pH 7.4
[3] = Stability in culture medium at 37°C by LC-MS/MS
POR-R cells = experiment: LC-MS/MS assay for PR104A metabolites in anoxic cultures; format: in vitro ADME; details: 100 μM PR104A, 3 h, anoxia
Description: POR-R cells (10^6 cells/0.5 mL) in 24-well plates were exposed to 100 μM PR104A under anoxia for 3 h. Plates were centrifuged (216 × g, 4°C, 8 min) extracellular medium was removed and proteins precipitated with an equal volume of ice-cold methanol. Cold methanol (100 μL) was then added to each well to extract intracellular PR104A and metabolites. Samples were stored at -80°C, then thawed, centrifuged (13,000 × g, 5 min, 4°C), diluted with two volumes of ammonium formate buffer (4.5 mM, pH 4.5) and analyzed with an Agilent LC-MS/MS (model 6460) using an electrospray ionization/atmospheric pressure chemical ionization multimode source and photodiode array absorbance detector as described previously ([Patel et al., 2007]).

HCT116 and HCT116/POR#6 = details: published value; PR104H+M model; ref Foehrenbacher et al., 2013; cited from earlier work
[4] = tested on: high-POR 'activator' HCT116 cell lines (POR-R, POR-G); format: cell-based
[5] = tested on: POR-null 'target' HCT116 cells in spheroids; format: cell-based
[6] = tested on: POR-R activators and PORko-G targets (HCT116); experiment: SN30000 'no bystander effect' agent-based model parameters; details: ABM parameter
[7] = tested on: anoxic MCLs of POR-R activators and PORko-G targets; details: 100 μM in donor; differing proportions of POR-R activators
HCT116 cells = details: cited from earlier work
[8] = published value, ref Hicks et al., 2010
[9] = published value, ref Mao et al., 2018

SMILES | Measured logD7.4 [2] | other results
[O-][n+]1nc(CCCN2CCOCC2)nc2cc3c(cc21)CCC3 [1-oxide] | – | cytotoxicity of downstream metabolites of SN30000 [1]: non-cytotoxic
O=C(NCCCO)c1cc(N(CCBr)CCBr)c([N+](=O)[O-])cc1[N+](=O)[O-] [I Br Br (CH2)3OH] | 1.81 | –
O=C(NCCO)c1cc(N(CCBr)CCBr)c([N+](=O)[O-])cc1[N+](=O)[O-] [I Br Br CH2CH2OH] | 1.69 | –
O=C(NCC(O)CO)c1cc(N(CCBr)CCBr)c([N+](=O)[O-])cc1[N+](=O)[O-] (stereo not shown) [I Br Br CH2CHOHCH2OH] | 1.25 | –
NC(=O)c1cc(N(CCBr)CCBr)c([N+](=O)[O-])cc1[N+](=O)[O-] [I Br Br H] | 1.97 | –
CS(=O)(=O)OCCN(CCBr)c1cc(C(=O)NCCO)c([N+](=O)[O-])cc1[N+](=O)[O-] [I Br OSO2CH3 CH2CH2OH] | 0.461 | –
CS(=O)(=O)OCCN(CCBr)c1cc(C(=O)NCC(O)CO)c([N+](=O)[O-])cc1[N+](=O)[O-] (stereo not shown) [I Br OSO2CH3 CH2CHOHCH2OH] | -0.0453 | –
CS(=O)(=O)OCCN(CCBr)c1cc(C(N)=O)c([N+](=O)[O-])cc1[N+](=O)[O-] [I Br OSO2CH3 H] | 0.493 | –
NC(=O)c1cc(N(CCCl)CCBr)c([N+](=O)[O-])cc1[N+](=O)[O-] [I Cl Br H] | 1.61 | –
O=C(NCCCO)c1cc(N(CCCl)CCCl)c([N+](=O)[O-])cc1[N+](=O)[O-] [I Cl Cl (CH2)3OH] | 1.49 | –
O=C(NCCN1CCOCC1)c1cc(N(CCCl)CCCl)c([N+](=O)[O-])cc1[N+](=O)[O-] [I Cl Cl CH2CH2-Nmorp] | 1.6 | –
O=C(NCCO)c1cc(N(CCCl)CCCl)c([N+](=O)[O-])cc1[N+](=O)[O-] [I Cl Cl CH2CH2OH] | 1.315 | –
O=C(NCC(O)CO)c1cc(N(CCCl)CCCl)c([N+](=O)[O-])cc1[N+](=O)[O-] (stereo not shown) [I Cl Cl CH2CHOHCH2OH] | 0.93 | –
NC(=O)c1cc(N(CCCl)CCCl)c([N+](=O)[O-])cc1[N+](=O)[O-] [I Cl Cl H] | 1.515 | –
O=C(NO)c1cc(N(CCCl)CCCl)c([N+](=O)[O-])cc1[N+](=O)[O-] [I Cl Cl OH] | 1.22 | –
CS(=O)(=O)OCCN(CCCl)c1cc(C(N)=O)c([N+](=O)[O-])cc1[N+](=O)[O-] [I Cl OSO2CH3 H] | 0.425 | –
O=C(NCC(O)CO)c1cc(N(CCI)CCI)c([N+](=O)[O-])cc1[N+](=O)[O-] (stereo not shown) [I Iodo Iodo CH2CHOHCH2OH] | 1.79 | –
NC(=O)c1cc(N(CCI)CCI)c([N+](=O)[O-])cc1[N+](=O)[O-] [I Iodo Iodo H] | 2.408 | –
CS(=O)(=O)OCCN(CCI)c1cc(C(N)=O)c([N+](=O)[O-])cc1[N+](=O)[O-] [I Iodo OSO2CH3 H] | 0.743 | –
CS(=O)(=O)OCCN(CCOS(C)(=O)=O)c1cc(C(N)=O)c([N+](=O)[O-])cc1[N+](=O)[O-] [I OSO2CH3 OSO2CH3 H] | -0.701 | –
NC(=O)c1cc(N(CCOS(N)(=O)=O)CCOS(N)(=O)=O)c([N+](=O)[O-])cc1[N+](=O)[O-] [I OSO2NH2 OSO2NH2 H] | -0.95 | –
CS(=O)(=O)c1cc([N+](=O)[O-])c(C(N)=O)cc1N(CCBr)CCBr [II Br Br H] | 1.18 | –

SMILES | Measured logD7.4 [2] | other results
NC(=O)c1cc(N(CCO)CCO)c([N+](=O)[O-])cc1N [III OH OH H] | -0.445 | –
O=C(NCCO)c1cc([N+](=O)[O-])cc([N+](=O)[O-])c1N(CCBr)CCBr [IV Br Br CH2CH2OH] | 2.33 | –
O=C(NCC(O)CO)c1cc([N+](=O)[O-])cc([N+](=O)[O-])c1N(CCBr)CCBr (stereo not shown) [IV Br Br CH2CHOHCH2OH] | 1.83 | –
NC(=O)c1cc([N+](=O)[O-])cc([N+](=O)[O-])c1N(CCBr)CCBr [IV Br Br H] | 2.63 | –
CS(=O)(=O)OCCN(CCBr)c1c(C(=O)NCCO)cc([N+](=O)[O-])cc1[N+](=O)[O-] [IV Br OSO2CH3 CH2CH2OH] | 1.01 | –
CS(=O)(=O)OCCN(CCBr)c1c(C(=O)NCC(O)CO)cc([N+](=O)[O-])cc1[N+](=O)[O-] (stereo not shown) [IV Br OSO2CH3 CH2CHOHCH2OH] | 0.589 | –
CS(=O)(=O)OCCN(CCBr)c1c(C(N)=O)cc([N+](=O)[O-])cc1[N+](=O)[O-] [IV Br OSO2CH3 H] | 1.23 | –
O=C(NCCCO)c1cc([N+](=O)[O-])cc([N+](=O)[O-])c1N(CCCl)CCCl [IV Cl Cl (CH2)3OH] | 2 | –
O=C(NCCO)c1cc([N+](=O)[O-])cc([N+](=O)[O-])c1N(CCCl)CCCl [IV Cl Cl CH2CH2OH] | 1.92 | –
CS(=O)(=O)OCCN(CCCl)c1c(C(N)=O)cc([N+](=O)[O-])cc1[N+](=O)[O-] [IV Cl OSO2CH3 H] | 1.02 | –
NC(=O)c1cc([N+](=O)[O-])cc([N+](=O)[O-])c1N(CCI)CCI [IV Iodo Iodo H] | 3.08 | –
O=C(NCCO)c1cc(NO)cc([N+](=O)[O-])c1N(CCCl)CCCl [Metabolite A, 2-(Bis(2-chloroethyl)amino)-5-(hydroxyamino)-N-(2-hydroxyethyl)-3-nitrobenzamide] | – | cytotoxic potency relative to PR104H (SiHa cells): lower cytotoxic potency; half-life in culture medium relative to PR104H [3]: fourfold longer half-life
Nc1cc(C(=O)NCCO)c(N(CCCl)CCCl)c([N+](=O)[O-])c1 [Metabolite B] | – | extracellular concentration relative to PR104H (POR-R cells; P = 0.02): fivefold higher
CS(=O)(=O)OCCN(CCBr)c1c(C(=O)NCCO)cc(NO)cc1[N+](=O)[O-] [PR104H] | – | intracellular metabolite profile (POR-R cells): major intracellular metabolite; Kc, intrinsic cytotoxic potency (HCT116 and HCT116/POR#6): 92 M⁻¹ s⁻¹
[O-][n+]1nc(CCCN2CCOCC2)[n+]([O-])c2cc3c(cc21)CCC3 [SN30000] | – | sensitivity of activator cell lines (clonogenic survival) [4]: marked increases in the sensitivity; bystander effect [5]: trivially small; killing of target cells as proportion of activators increases [5]: increasing proportions of POR-R activators reduced killing of PORko-G targets; Half-life, non-enzymatic loss in culture medium ([6]; 37 °C): 1000 days; F2, proportion of O2-dependent metabolism of the drug [6]: 1; Hill parameter n [6]: 1.7; KO2, O2 concentration for half-maximum prodrug activation [6]: 1.14; Kc, intrinsic cytotoxic potency of the prodrug [6]: 1800 M⁻¹ s⁻¹; Kin, rate constant for transfer from the extracellular to the intracellular compartment [6]: 10 min⁻¹; Kout, rate constant for transfer from the intracellular to the extracellular compartment [6]: 10 min⁻¹; Activator Kmet,0, rate constant for the maximum rate of metabolism in activator cells under anoxia ([6]; POR-R activators, adjusted to optimize monolayer fits): 14 min⁻¹; Target Kmet,0, rate constant for the maximum rate of metabolism in target cells under anoxia ([6]; PORko-G targets, adjusted to optimize monolayer fits): 1.3 min⁻¹; net diffusion through anoxic MCLs [7]: lowered by increasing proportions of activator cells; Half-life, non-enzymatic loss in culture medium (HCT116 cells; 37 °C, published value, ref Mao et al., 2018): 1000 days; Hill parameter n (HCT116 cells; oxygen dependence of metabolism, published value, ref Mao et al., 2018): 1.7; Kmet,0, rate constant for the maximum rate of metabolism under anoxia (HCT116 cells; parental HCT116 cells (listed as Target Kmet,0 published value), ref Mao et al., 2018): 1.88 min⁻¹; F2, proportion of O2-dependent metabolism of the drug (HCT116 cells; [8]): 1; KO2, O2 concentration for half-maximum prodrug activation (HCT116 cells; [8]): 1.14; Kin, rate constant for transfer from the extracellular to the intracellular compartment (HCT116 cells; [9]): 10 min⁻¹; Kout, rate constant for transfer from the intracellular to the extracellular compartment (HCT116 cells; [9]): 10 min⁻¹
NC(=O)c1cc(NO)cc([N+](=O)[O-])c1N(CCCl)CCCl [V Cl Cl H] | 2.19 | –
NC(=O)c1cc(NO)cc([N+](=O)[O-])c1N(CCO)CCO [V OH OH H] | -1.36 | –
O=C(NCC(O)CO)c1c([N+](=O)[O-])ccc(N(CCBr)CCBr)c1[N+](=O)[O-] (stereo not shown) [VI Br Br CH2CHOHCH2OH] | 1.04 | –
CS(=O)(=O)OCCN(CCBr)c1ccc([N+](=O)[O-])c(C(=O)NCC(O)CO)c1[N+](=O)[O-] (stereo not shown) [VI Br OSO2CH3 CH2CHOHCH2OH] | -0.373 | –
NC(=O)c1c([N+](=O)[O-])ccc(N(CCCl)CCCl)c1[N+](=O)[O-] [VI Cl Cl H] | 1.41 | –
c1c2c(cc3nc(CCCN4CCOCC4)nnc13)CCC2 [nor-oxide] | – | cytotoxicity of downstream metabolites of SN30000 [1]: non-cytotoxic
